Laboratory results: ChEMBL document CHEMBL1201862, “PubChem BioAssay data set” (2004)
Active and inactive are the calls of the source.

Key:
[1] = molecular target: T1, Replicative DNA helicase DnaB (Mycobacterium tuberculosis, UniProt P9WMR3); experiment: DnaB intein splicing inhibitors, dose response, biochemical, cell-free fluorescence (AID 449749); type: functional
T1 sequence (P9WMR3 whole entry): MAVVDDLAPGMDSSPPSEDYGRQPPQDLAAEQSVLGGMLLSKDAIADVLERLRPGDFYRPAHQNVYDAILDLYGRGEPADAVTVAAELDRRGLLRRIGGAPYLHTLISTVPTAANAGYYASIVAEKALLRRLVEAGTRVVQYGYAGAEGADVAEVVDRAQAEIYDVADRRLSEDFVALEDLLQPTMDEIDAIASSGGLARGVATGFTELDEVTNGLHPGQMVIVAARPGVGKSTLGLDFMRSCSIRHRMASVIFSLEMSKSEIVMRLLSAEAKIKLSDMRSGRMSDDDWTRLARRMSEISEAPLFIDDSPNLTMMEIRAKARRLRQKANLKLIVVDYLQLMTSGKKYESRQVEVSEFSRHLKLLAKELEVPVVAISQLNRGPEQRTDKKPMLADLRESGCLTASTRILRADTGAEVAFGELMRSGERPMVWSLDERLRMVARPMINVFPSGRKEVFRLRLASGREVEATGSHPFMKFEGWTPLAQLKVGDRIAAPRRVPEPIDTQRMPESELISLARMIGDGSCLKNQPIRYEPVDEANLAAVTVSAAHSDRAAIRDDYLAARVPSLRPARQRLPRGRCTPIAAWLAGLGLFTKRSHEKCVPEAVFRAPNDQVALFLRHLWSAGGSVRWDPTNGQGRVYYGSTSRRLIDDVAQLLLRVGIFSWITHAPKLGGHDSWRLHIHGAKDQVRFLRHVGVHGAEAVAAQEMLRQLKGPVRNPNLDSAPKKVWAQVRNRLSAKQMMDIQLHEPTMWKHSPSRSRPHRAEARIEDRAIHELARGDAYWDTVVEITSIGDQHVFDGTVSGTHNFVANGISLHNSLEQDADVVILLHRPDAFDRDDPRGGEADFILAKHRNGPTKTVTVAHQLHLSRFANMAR

X-box-binding protein 1 = X-box-binding protein 1 (Homo sapiens, UniProt P17861); type: functional, Cricetulus griseus;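 further: confirmatory dose-response counter-screen serving a CHOP assay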
X-box-binding protein 1, sequence (P17861 whole entry): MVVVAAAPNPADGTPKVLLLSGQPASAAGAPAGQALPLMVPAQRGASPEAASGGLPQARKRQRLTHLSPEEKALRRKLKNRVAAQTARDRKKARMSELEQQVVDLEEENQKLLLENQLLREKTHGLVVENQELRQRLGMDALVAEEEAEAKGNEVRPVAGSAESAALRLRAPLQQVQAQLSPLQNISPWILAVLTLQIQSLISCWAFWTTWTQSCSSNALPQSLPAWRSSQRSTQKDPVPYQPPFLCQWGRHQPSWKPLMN

Protein RecA = molecular target: T2, Protein RecA (Mycobacterium tuberculosis, UniProt P9WHJ3); experiment: Fluorescence Cell-Free Homogeneous Dose Retest to Identify Inhibitors of RecA-Intein Splicing Activity. [Related pubchem assays (depositor defined):AID2097, AID2223, AID489010, AID492950]; type: functional
T2 sequence (P9WHJ3 whole entry): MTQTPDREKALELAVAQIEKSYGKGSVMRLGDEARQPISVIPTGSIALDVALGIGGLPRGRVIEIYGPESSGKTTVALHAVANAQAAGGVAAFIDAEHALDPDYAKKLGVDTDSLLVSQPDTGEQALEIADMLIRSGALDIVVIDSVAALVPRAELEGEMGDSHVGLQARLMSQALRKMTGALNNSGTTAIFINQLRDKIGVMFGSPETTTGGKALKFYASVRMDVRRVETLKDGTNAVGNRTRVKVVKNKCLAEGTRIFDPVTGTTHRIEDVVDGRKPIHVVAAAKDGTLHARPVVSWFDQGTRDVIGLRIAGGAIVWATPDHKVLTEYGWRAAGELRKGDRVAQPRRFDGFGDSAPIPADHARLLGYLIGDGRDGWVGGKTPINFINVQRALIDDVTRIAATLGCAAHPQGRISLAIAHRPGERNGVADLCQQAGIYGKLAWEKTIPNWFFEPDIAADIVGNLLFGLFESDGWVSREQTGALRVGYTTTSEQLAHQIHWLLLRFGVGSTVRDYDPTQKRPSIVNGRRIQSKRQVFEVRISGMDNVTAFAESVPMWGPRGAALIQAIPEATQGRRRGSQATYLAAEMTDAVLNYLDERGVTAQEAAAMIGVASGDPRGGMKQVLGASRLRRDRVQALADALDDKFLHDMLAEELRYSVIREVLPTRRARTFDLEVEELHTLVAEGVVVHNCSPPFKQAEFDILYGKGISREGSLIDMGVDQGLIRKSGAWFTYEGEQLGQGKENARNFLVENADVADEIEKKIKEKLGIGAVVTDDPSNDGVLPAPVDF

Hexokinase HKDC1 = molecular target: T3, Hexokinase HKDC1 (Homo sapiens, UniProt Q2TB90); experiment: inhibition of HKDC1 glucose phosphorylation – biochemical, W721R variant, dose response (AID 504729); type: functional
T3 sequence (Q2TB90 whole entry): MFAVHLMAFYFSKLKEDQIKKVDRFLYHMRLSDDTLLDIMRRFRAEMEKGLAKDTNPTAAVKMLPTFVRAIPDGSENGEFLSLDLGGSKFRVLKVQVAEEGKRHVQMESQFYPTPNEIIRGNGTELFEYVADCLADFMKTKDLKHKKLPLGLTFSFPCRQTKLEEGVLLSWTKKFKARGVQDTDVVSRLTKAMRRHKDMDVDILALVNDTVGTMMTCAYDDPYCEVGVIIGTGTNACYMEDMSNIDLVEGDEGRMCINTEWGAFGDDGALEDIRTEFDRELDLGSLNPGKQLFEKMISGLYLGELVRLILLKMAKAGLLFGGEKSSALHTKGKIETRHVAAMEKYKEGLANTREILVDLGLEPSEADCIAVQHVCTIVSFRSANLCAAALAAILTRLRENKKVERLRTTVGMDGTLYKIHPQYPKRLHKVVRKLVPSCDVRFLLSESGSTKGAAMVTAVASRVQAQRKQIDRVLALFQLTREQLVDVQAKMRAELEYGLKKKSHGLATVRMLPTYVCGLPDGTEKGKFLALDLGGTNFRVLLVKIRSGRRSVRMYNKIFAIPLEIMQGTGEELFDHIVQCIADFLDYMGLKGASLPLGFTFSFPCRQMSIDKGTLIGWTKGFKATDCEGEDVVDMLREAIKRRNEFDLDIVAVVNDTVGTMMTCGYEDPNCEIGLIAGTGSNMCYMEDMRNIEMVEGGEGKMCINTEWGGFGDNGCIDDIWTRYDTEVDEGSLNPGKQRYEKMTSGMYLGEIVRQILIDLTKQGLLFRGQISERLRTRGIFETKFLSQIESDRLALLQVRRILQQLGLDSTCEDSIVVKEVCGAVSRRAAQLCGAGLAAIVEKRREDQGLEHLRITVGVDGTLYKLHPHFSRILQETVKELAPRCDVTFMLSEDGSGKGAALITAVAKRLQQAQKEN

[2] = molecular target: T4, Hepatocyte nuclear factor 4-alpha (Homo sapiens, UniProt P41235); type: functional, cell-based;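 further: biochemical luminescence-based dose-response counterscreen measuring inhibition of HNF4 dimerization, run alongside a screen for blockers of ABHD5–perilipin-5 interaction; split luciferase complementation of HNF4 fusion proteins in cell lysate measuring dimerization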
T4 sequence (P41235 whole entry): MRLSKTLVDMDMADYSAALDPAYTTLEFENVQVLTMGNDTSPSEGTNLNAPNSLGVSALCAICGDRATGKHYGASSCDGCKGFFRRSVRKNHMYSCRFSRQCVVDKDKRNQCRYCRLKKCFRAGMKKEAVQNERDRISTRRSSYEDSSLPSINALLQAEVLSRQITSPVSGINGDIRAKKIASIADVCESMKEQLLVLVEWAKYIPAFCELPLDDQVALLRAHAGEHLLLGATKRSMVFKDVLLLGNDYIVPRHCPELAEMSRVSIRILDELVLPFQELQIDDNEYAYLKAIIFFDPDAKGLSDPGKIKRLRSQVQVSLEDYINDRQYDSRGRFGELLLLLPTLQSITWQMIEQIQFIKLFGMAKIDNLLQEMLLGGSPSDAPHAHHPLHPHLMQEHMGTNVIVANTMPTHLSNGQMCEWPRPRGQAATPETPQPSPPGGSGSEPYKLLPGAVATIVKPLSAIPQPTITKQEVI

[3] = molecular target: Glucose-6-phosphate 1-dehydrogenase (Homo sapiens, UniProt P11413); experiment: inhibition of Homo sapiens G6PD, dose series – biochemical, fluorescence, selectivity assay for P. falciparum G6PD inhibitor project, dose response (AID 504792); type: functional
Glucose-6-phosphate 1-dehydrogenase, sequence (P11413 whole entry): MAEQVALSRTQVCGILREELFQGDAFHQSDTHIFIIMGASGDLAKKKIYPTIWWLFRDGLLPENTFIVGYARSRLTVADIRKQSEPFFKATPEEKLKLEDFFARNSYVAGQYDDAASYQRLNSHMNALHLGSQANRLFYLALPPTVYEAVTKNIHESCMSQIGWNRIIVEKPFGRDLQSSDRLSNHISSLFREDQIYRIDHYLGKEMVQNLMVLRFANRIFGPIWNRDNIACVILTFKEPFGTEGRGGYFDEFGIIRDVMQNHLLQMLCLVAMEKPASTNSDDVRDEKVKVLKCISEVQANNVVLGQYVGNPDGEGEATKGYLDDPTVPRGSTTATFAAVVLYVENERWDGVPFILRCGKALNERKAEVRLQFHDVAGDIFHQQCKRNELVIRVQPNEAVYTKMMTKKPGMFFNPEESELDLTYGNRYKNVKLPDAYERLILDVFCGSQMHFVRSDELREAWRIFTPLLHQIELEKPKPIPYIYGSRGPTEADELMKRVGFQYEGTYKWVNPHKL

Bcl-2-like protein 10 = Bcl-2-like protein 10 (Homo sapiens, UniProt Q9HD36); experiment: Bcl-B/TR3 peptide binding disruption – biochemical, fluorescence polarization, FITC-TR3 peptide, selectivity assay for Bfl-1 inhibitor project, primary screen (AID 748);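 further: fluorescence polarization from a fluorescein-labelled TR3 peptide binding purified Bcl-B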
Bcl-2-like protein 10, sequence (Q9HD36 whole entry): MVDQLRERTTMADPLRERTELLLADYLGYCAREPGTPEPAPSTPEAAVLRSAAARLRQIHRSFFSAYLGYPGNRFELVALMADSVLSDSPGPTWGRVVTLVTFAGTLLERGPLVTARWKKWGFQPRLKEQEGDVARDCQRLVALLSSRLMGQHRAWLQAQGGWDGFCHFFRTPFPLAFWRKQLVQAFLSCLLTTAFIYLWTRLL

[4] = molecular target: Induced myeloid leukemia cell differentiation protein Mcl-1 (Homo sapiens, UniProt Q07820); type: functional
Induced myeloid leukemia cell differentiation protein Mcl-1, sequence (Q07820 whole entry): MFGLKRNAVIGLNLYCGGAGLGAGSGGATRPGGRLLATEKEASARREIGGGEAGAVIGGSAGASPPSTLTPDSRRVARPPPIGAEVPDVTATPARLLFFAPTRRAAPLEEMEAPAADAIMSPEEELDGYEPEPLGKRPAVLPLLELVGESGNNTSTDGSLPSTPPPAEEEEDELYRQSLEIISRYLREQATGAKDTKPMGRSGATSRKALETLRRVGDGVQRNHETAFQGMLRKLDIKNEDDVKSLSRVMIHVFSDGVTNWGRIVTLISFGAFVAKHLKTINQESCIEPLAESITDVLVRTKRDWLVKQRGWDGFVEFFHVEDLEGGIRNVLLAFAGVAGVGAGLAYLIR

[5] = molecular target: T5, Small ubiquitin-related modifier 1 (Homo sapiens, UniProt P63165); experiment: SUMO1 protein interaction blockers, potency – biochemical, fluorescence polarization, uHTS hits, dose response (AID 624382); type: functional; details: read-out: IC50_Mean
T5 sequence (P63165 whole entry): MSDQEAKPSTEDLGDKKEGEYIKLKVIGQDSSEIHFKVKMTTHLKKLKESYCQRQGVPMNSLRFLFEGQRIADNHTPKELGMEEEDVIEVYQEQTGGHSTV

[6] = molecular target: Eukaryotic translation initiation factor 4E (Mus musculus, UniProt P63073); experiment: blockers of eIF4G binding by eIF4E – biochemical, TR-FRET, dose response (AID 855); type: functional;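 further: potency for disrupting eIF4E binding to eIF4GI seen as loss of FRET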
Eukaryotic translation initiation factor 4E, sequence (P63073 whole entry): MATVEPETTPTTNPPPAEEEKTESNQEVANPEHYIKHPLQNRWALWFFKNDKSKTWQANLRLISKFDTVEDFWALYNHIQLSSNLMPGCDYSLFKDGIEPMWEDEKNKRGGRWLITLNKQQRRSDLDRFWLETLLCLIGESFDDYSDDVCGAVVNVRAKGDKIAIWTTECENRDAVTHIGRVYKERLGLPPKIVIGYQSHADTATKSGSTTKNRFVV

[7] = viability of PTEN-deleted HCT116 cells – cell-based, HCT116 PTEN knockout, dose response (AID 1047); type: functional;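 further: HCT116 colon tumor cells with PTEN knocked out; cells exposed to compound for 60 hours before readout; potency for loss of cell viability measured by luminescence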
[8] = molecular target: T6, DNA repair protein RAD52 homolog (Homo sapiens, UniProt P43351); type: functional, biochemical
T6 sequence (P43351 whole entry): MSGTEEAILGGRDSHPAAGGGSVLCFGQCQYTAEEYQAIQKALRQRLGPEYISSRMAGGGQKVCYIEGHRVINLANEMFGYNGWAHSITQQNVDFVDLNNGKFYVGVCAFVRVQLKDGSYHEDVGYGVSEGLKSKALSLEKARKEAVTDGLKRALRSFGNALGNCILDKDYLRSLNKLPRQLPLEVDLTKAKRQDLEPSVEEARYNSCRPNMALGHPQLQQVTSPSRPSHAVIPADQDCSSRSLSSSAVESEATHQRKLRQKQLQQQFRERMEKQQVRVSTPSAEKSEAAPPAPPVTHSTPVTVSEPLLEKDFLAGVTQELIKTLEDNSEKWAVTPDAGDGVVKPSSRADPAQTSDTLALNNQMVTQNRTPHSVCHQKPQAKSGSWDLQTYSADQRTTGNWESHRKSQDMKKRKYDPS

[9] = molecular target: T5, Small ubiquitin-related modifier 1; experiment: SUMO1 protein-protein binding blockers, potency – biochemical, FRET, dose response (AID 624383); type: functional; details: read-out: IC50_Mean
[10] = molecular target: Heat shock protein HSP 90-alpha (Homo sapiens, UniProt P07900); type: functional, organism-based
[11] = viability of HCT116 lacking mutant beta-catenin – cell-based, human colon tumor, dose response (AID 1045); type: functional;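 further: HCT116 colon tumor cells with beta catenin knocked out; cells exposed to compound for 60 hours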
Streptokinase A = molecular target: T7, Streptokinase A (Streptococcus pyogenes serotype M1, UniProt P10520); experiment: viability-normalized secreted streptokinase activity reduction – plasminogen activation absorbance, OD405, dose response (AID 1914); type: functional, Streptococcus pyogenes M1 GAS;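 further: secreted streptokinase activity via plasminogen activation per viability signal from cell pellet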
T7 sequence (P10520 whole entry): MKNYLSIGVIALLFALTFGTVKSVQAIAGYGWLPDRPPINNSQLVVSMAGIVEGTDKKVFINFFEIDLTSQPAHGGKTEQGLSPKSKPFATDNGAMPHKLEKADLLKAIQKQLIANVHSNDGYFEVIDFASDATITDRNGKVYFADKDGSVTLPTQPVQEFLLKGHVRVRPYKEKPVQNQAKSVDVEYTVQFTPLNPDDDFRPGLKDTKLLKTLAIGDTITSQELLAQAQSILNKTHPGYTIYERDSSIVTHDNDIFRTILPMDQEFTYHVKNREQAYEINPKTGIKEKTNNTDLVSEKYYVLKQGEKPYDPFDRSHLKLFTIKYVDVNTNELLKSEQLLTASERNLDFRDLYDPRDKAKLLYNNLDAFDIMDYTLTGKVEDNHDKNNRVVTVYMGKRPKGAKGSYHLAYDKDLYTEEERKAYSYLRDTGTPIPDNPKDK

[12] = tested on: Streptococcus sp. 'group A'; experiment: Streptococcus pyogenes SK(-)GAS viability under kanamycin – luminescence, BacTiterGlo, confirmation, counter-screen for streptokinase expression inhibitor project, dose response (AID 1900); type: functional, organism-based
Streptococcus = experiment: GAS UMAA2166 growth inhibition – luminescence, BacTiterGlo, counter-screen for streptokinase expression inhibitor project, dose response (AID 1915); type: functional, organism-based;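 further: potency for reduction of bacterial viability or growth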
[13] = molecular target: Neurotensin receptor type 1 (Homo sapiens, UniProt P30989); type: functional;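 further: Image-based confirmatory dose-response assay measuring agonist activity at NTR1; NTR1-expressing U2OS osteosarcoma cells imaged for beta-arrestin GFP spot formation; agonist potency where compounds increase beta-arrestin recruitment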
Neurotensin receptor type 1, sequence (P30989 whole entry): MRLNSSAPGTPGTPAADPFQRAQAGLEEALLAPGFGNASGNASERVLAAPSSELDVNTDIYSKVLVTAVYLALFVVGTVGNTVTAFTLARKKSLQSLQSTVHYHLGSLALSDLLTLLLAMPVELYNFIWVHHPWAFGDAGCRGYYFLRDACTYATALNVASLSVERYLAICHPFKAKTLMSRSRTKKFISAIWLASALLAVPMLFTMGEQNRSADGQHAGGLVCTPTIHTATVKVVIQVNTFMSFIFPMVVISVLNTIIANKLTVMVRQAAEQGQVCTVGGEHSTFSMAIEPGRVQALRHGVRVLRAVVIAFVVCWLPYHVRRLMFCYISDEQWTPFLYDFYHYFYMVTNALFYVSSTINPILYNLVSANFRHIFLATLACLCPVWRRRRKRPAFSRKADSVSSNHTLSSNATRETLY

Q: Which AC50 [1] does the source give for `CC1=NN(c2ccccc2)C(=O)/C1=C/c1cc2ccccc2[nH]1` here?
A: 19.2 µM (active)

Q: And the “Absolute IC50 (XBP1)” value (X-box-binding protein 1)?
A: 10 µM

Q: What about the EC50 (Protein RecA) of the same compound?
A: 10.9 µM (active)

Q: What does the source list for `Cc1ccc(SC2=C(Sc3ccc(C)cc3)C(=O)c3ccccc3C2=O)cc1`?
A: IC50 (Hexokinase HKDC1): 15.9 µM (active); IC50 [2]: 1.38 µM (active); IC50 [3]: > 80 µM (inactive)

Q: Which IC50 (Bcl-2-like protein 10) does the source give for `O=c1c([N+](=O)[O-])cc(C(F)(F)F)cn1Cc1cccc(Cl)c1` here?
A: > 100 µM (inactive)

Q: Which results are given for `CCCCCCCCCCCCCCCC[n+]1cccc2ccccc21`?
A: IC50 [4]: 4.32 µM (active); IC50 [5]: > 66.6 µM (inactive); IC50 [6]: 5.71 µM (active); EC50 [7]: 0.295 µM (active); AC50 [8]: 3.67 µM (active); IC50 [9]: 8.86 µM (active); AC50 [10]: 2.87 µM (active); EC50 [11]: 0.17 µM (active)

Q: For `COC(=O)C(Nc1ccccc1Cl)(c1cc(C)c(O)c(C)c1)C(F)(F)F` (stereo unspecified), which EC50 (Streptokinase A) is on record?
A: 17.2 µM (active)

Q: And the EC50 [12]?
A: 1.58 µM (active)

Q: And the EC50 (Streptococcus)?
A: 9.48 µM (active)

Q: And the “Absolute IC50 (XBP1)” value (X-box-binding protein 1)?
A: < 10 µM

Q: For `COc1ccc(-n2ncc3c(N4CCN(Cc5ccccc5)CC4)ncnc32)cc1`, which EC50 [13] is on record?
A: 35.9 µM (inactive)

Q: Which EC50 [13] does the source give for `COC(=O)COc1ccc(/C=N/NC(=O)CN(c2ccccc2OC)S(=O)(=O)c2ccccc2)cc1` here?
A: 6.65 µM (active)
